Test results reported in patent US8383581B2, “Short-chain peptides as parathyroid hormone (PTH) receptor agonist” (Cadila Healthcare Limited, priority 2009, dated 2013).
Where a SMILES comes first, the peptide text is derived from it. [ ]: non-standard residue; d: D form. ξ: configuration not given here. ξαMeBip(2'-Et,4'-OMe) = CCc1cc(OC)ccc1-c1ccc(CC(C)(N)C(=O)O)cc1; Arg(NO2) = N=C(NCCC[C@H](N)C(=O)O)N[N+](=O)[O-]; ξαMePhe(2,6-F2) = CC(N)(Cc1c(F)cccc1F)C(=O)O; αMePhe(2-F) = C[C@](N)(Cc1ccccc1F)C(=O)O; ξαMePhe(2-F) = CC(N)(Cc1ccccc1F)C(=O)O; hhPhe = N[C@@H](CCCc1ccccc1)C(=O)O; hArg = N=C(N)NCCCC[C@H](N)C(=O)O; Nle = CCCC[C@H](N)C(=O)O; Orn = NCCC[C@H](N)C(=O)O; Aib = CC(C)(N)C(=O)O

Legend:
Format in all cases: in vitro ADME
[1] = Stability of peptides in human plasma; settings: human, plasma; for metabolised at 24 h, 2 μM: pH 7.8
Procedure, shortened: (§1)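 Peptides at 2 μM final incubated 0–24 h at 37 °C (50 mM triethanolamine-HCl, pH 7.8) in each matrix, matrix level set to degrade ~50% PTH(1-34) in 1 h; TFA-quenched, C18 HPLC at 206 nm with ESI-MS peak identification; percent degradation from peak areas at each time point.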

[2] = Stability of peptides in simulated gastric fluid (pH 1.5; HCl, NaCl and Pepsin); settings: pH 1.5; for % degradation of peptides in 24 h when incubated with simulated gastric fluid: 2 μM; for half-life: simulated gi fluid
[3] = Stability of peptides in simulated intestinal fluid (pH 7.5); settings: pH 7.5; for half-life: simulated gi fluid; for % degradation of peptides in 24 h when incubated with simulated intestinal fluid: 2 μM
Procedure, shortened: as §1

[4] = Stability of peptides in human liver microsomes; settings: human, microsomes; for % degradation of peptides in 24 h when incubated with liver microsomes: 2 μM, pH 7.8
Procedure, shortened: as §1

Row | half-life [1] [min] | metabolised at 24 h, 2 μM [1] [%] | % degradation of peptides in 24 h when incubated with simulated gastric fluid [2] [%] | half-life [2] [min] | half-life [3] [min] | % degradation of peptides in 24 h when incubated with simulated intestinal fluid [3] [%] | half-life (t1/2) in liver microsomes [4] | % degradation of peptides in 24 h when incubated with liver microsomes [4] [%] | half-life (t1/2) in human plasma [1] | half-life [4] [min] | SMILES
1 | > 1440 | 0 | 00 | > 1440 | > 1440 | 00 | (5) h | 26 | – | – | CCc1cc(OC)ccc1-c1ccc(CC(C)(NC(=O)[C@H](CCCCNC(=N)N)NC(=O)[C@H](C)NC(=O)[C@H](CCCCNC(=N)N)NC(=O)[C@H](CCC(N)=O)NC(=O)[C@H](Cc2c[nH]cn2)NC(=O)[C@H](CCSC)NC(=O)[C@H](CC(C)C)NC(=O)[C@H](CCC(N)=O)NC(=O)[C@@H](NC(=O)[C@H](CCC(=O)O)NC(=O)C(C)(C)NC(=O)[C@@H](NC(=O)C(C)(C)N)C(C)C)[C@@H](C)CC)C(=O)N[C@@H](CCCc2ccccc2)C(N)=O)cc1 (some centres unmarked) [Seq. ID. 898] (H-[Aib]V[Aib]EIQLMHQ[hArg]A[hArg][ξαMeBip(2'-Et,4'-OMe)][hhPhe]-NH2)
2 | > 1440 | 0 | 00 | > 1440 | > 1440 | 00 | (5) h | 35 | – | – | CC[C@H](C)[C@H](NC(=O)[C@H](CCC(=O)O)NC(=O)C(C)(C)NC(=O)[C@@H](NC(=O)C1(NC(=O)[C@@H](N)C(C)C)CC1)C(C)C)C(=O)N[C@@H](CCC(N)=O)C(=O)N[C@@H](CC(C)C)C(=O)NC(C)(CCSC)C(=O)N[C@@H](Cc1c[nH]cn1)C(=O)N[C@@H](CCC(N)=O)C(=O)N[C@@H](CCCCNC(=N)N)C(=O)N[C@@H](C)C(=O)N[C@@H](CCCCNC(=N)N)C(=O)NC(C)(Cc1c[nH]c2ccccc12)C(=O)NC(C)(CCCc1ccccc1)C(N)=O (single isomer, unassigned) [Seq. ID. 950]
3 | – | 71 | 100 | 30 | 30 | 100 | – | 100 | (9) h | 30 | CCCC[C@H](NC(=O)C(C)(Cc1ccccc1F)NC(=O)[C@H](CCC(N)=O)NC(=O)[C@@H](NC(=O)[C@H](CCC(=O)O)NC(=O)C(C)(C)NC(=O)[C@@H](NC(=O)C(C)(C)N)C(C)C)[C@@H](C)CC)C(=O)N[C@@H](Cc1c[nH]cn1)C(=O)N[C@@H](CCC(N)=O)C(=O)NC(C)(C)C(=O)NC(C)(C)C(=O)NC(C)(Cc1c(F)cccc1F)C(=O)NC(C)(Cc1ccccc1F)C(N)=O (some centres unmarked) [Seq. ID. 570] (H-[Aib]V[Aib]EIQ[ξαMePhe(2-F)][Nle]HQ[Aib][Aib][ξαMePhe(2,6-F2)][ξαMePhe(2-F)]-NH2)
4 | – | 70 | 100 | 30 | 30 | 100 | – | 100 | (9) h | 30 | CCCC[C@H](NC(=O)[C@](C)(Cc1ccccc1F)NC(=O)[C@H](CCC(N)=O)NC(=O)[C@@H](NC(=O)[C@H](CCC(=O)O)NC(=O)C(C)(C)NC(=O)[C@@H](NC(=O)C(C)(C)N)C(C)C)[C@@H](C)CC)C(=O)N[C@@H](Cc1c[nH]cn1)C(=O)N[C@@H](CCC(N)=O)C(=O)N[C@@H](CCCN)C(=O)N[C@@H](C)C(=O)N[C@@H](CCCNC(=N)N[N+](=O)[O-])C(=O)N[C@@](C)(Cc1ccccc1F)C(N)=O [Seq. ID. 329] (H-[Aib]V[Aib]EIQ[αMePhe(2-F)][Nle]HQ[Orn]A[Arg(NO2)][αMePhe(2-F)]-NH2)
